Patent publication EP0603240B1, “SAFENING HERBICIDAL PYRAZOLYLSULFONYLUREAS” (priority 1991, dated 1993)

Experiments:
Type in all cases: in vivo
[1] = test system: barnyardgrass (Echinochloa crusgalli); experiment: Example 3, Procedure I: antidotes against Herbicide No. 1; conditions: no antidote
Method in brief: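 Corn seeded in silt loam in the greenhouse, covered with a soil layer into which herbicide and antidote (each in acetone) were incorporated, with untreated and herbicide-only controls; sub-irrigated. Herbicide No. 1 at 4.48 down to 0.56 kg/ha. Barnyardgrass response scored as percent injury, with antidote efficacy as the injury difference without vs with antidote.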

[2] = test system: barnyardgrass (Echinochloa crusgalli); experiment: Example 5, Procedure I: Herbicide No. 1 + alachlor (No. 7) with Antidote Nos. 15 and 16; conditions: no antidote
Procedure: (§1) Containers were filled and compacted with a fumigated silt loam top soil to a depth of about 1.3 cm from the top of the container. A first container was designated as an untreated control, a second container was designated as a herbicide control, and a third container was designated as a herbicide + antidote test container. Each of the containers was seeded with a crop species. A measured amount of herbicide dispersed or dissolved in acetone was applied to a measured quantity of soil. To this same quantity of soil treated with herbicide, there was added a measured amount of antidote dispersed or dissolved in acetone. The quantity of soil treated with the herbicide and antidote was thoroughly mixed to incorporate the herbicide and antidote in the soil uniformly. The seed bed in the third container of soil was covered with the soil treated with the herbicide and antidote and the container was leveled. For each test series, the seed beds of the first and second containers were likewise covered by soil layers. the cover layer of the first container was not treated with herbicide or antidote.
(§2) The containers were then placed on a bench in a greenhouse and sub-irrigated as required for the duration of the test. […] Plant response is measured in terms of percent injury. Antidote efficacy is indicated as the difference in plant injury by the herbicide(s) without the antidote and with the antidote.
(§3) In the series of greenhouse tests described below, for routine screening purposes the herbicide/antidote compositions were tested in crop/weed combinations involving corn as the crop and either or both of the weeds barnyardgrass (Echinochloa crusgalli), a monocotyledonous weed, and velvetleaf (Abutilon theophrasti), a dicotyledonous weed. In the tables below, these weeds are indicated by the symbols "BYG" and "VL", respectively.
(§4) This example describes tests with Antidote Nos. 15 and 16 to safen Herbicide No. 1 according to Procedure I using corn and the weeds barnyardgrass and velvetleaf as the test plants.
(§5) In the tests described in this example, the same procedure described in Example 4 was performed simultaneously therewith and under the same conditions, except that a co-herbicide, alachlor, was included in the same composition with Herbicide No. 1 and Antidote Nos. 15 and 16. Alachlor (Herbicide No. 7 herein) is the active ingredient in the commercial product LASSO® herbicide.

[3] = test system: velvetleaf (Abutilon theophrasti); experiment: as above; conditions: no antidote
Procedure: as §1, §2, §3, §4, §5

corn = experiment: Example 26, field trials, pre-plant incorporation (PPI): corn growth reduction; conditions: for corn injury level (GR) / corn growth reduction (GR): without an antidote; for corn growth reduction (GR) / maximum injury level (GR): PPI
Procedure: In order to better understand and to confirm the results of greenhouse tests with herbicidal compositions comprising representative compounds according to Formula I and an antidote with and without a co-herbicide, a large number of field trials were conducted. This example provides a summary of those field trials.
The primary purpose of the field trials summarized herein was to ascertain the amount of corn injury caused by a compound according to Formula I. viz. Herbicide No. 1, with and without a co-herbicide of the α-chloroacetanilide class, viz., Herbicide Nos. 6 and 7, and the extent that any corn injury could be safened by a dichloroacetamide antidotal compound, viz., Antidote No. 15.
Corn injury is generally expressed, in broad terms, in stand reduction, growth reduction, malformed plants and other more specific effects. For purposes of the summary here, the results of a plurality of field trials are expressed in terms of growth reduction (GR), i.e., a significant reduction in plant height of the corn stand. A common criteria for commercially-acceptable corn injury is an amount equal to or less than 10% malformed plants or stand reduction and for present reporting purposes, no greater than about 15% growth reduction. The corn injury/safening described for these field trials refers to commercially-unacceptable to commercially-acceptable performance.
In the field trials from a wide distribution of trial locations, soil types (all having in excess of 2% organic matter), climatic effects, etc., the test chemicals were applied as tank mixes in various modes of application, i.e., pre-plant incorporation (PPI) and preemergence surface application (PRE). Test plots were small plots with three replications in a randomized complete block design. Observations were made and recorded in a period of from 31-50 days after treatment.

[4] = Herbicide No.1 4.48 + No.7 0.56 kg/ha
[5] = Herbicide No.1 4.48 + No.7 2.24 kg/ha
[6] = Herbicide No.1 6.72 + No.7 0.56 kg/ha
[7] = Herbicide No.1 6.72 + No.7 (alachlor) 2.24 kg/ha

COC(=O)c1c(Cl)nn(C)c1S(=O)(=O)NC(=O)Nc1nc(OC)cc(OC)n1 [Herbicide No. 1] was tested, and the “% Injury BYG” value ([1]; Herb. No. 1 0.56 kg/ha) was 50%, the “% Injury BYG” value ([1]; Herb. No. 1 1.12 kg/ha) was 70% and the “% Injury BYG” value ([1]; Herb. No. 1 2.24 kg/ha) was 70%. For the same compound, the “% Injury BYG” value ([1]; Herb. No. 1 4.48 kg/ha) was 75%, the “% Injury BYG” value [2, 4] was 99% and the “% Injury BYG” value [2, 5] was 100%. For the same compound, the “% Injury BYG” value [2, 6] was 99%, the “% Injury BYG” value [2, 7] was 100% and the “% Injury VL” value [3, 4] was 98%. For the same compound, the “% Injury VL” value [3, 5] was 98%, the “% Injury VL” value [3, 6] was 98% and the “% Injury VL” value [3, 7] was 98%. The “corn injury level (GR)” value (corn; Herbicide No. 1 0.14 kg/ha + Herbicide No. 6 (acetochlor)) was 14.9%, the “corn injury level (GR)” value (corn; Herbicide No. 1 0.28 kg/ha + Herbicide No. 6 (acetochlor)) was 24.9% and the “corn injury level (GR)” value (corn; Herbicide No. 1 0.7 kg/ha + Herbicide No. 6 (acetochlor)) was 12.5%. For the same compound, the “corn growth reduction (GR)” value (corn; Herbicide No. 1 0.07 kg/ha + Herbicide No. 7 (alachlor)) was 9.75%, the “maximum injury level (GR)” value (corn; Herbicide No. 1 0.07 kg/ha + Herbicide No. 7, without an antidote) was 48% and the “corn growth reduction (GR)” value (corn; Herbicide No. 1 0.14 kg/ha + Herbicide No. 7 (alachlor)) was 13.25%. For the same compound, the “maximum injury level (GR)” value (corn; Herbicide No. 1 0.14 kg/ha + Herbicide No. 7, without an antidote) was 48%.
